Source: PubChem BioAssay (NCI)
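Following 48 hours of exposure in 96-well plates, responses at five concentrations were used to interpolate endpoints linearly. At the GI50, growth is halved. TGI is the concentration that stops growth completely.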

Legend:
Assay in all cases: growth of human tumour cells (NCI), 48 h
LOX IMVI melanoma = tested on: LOX IMVI melanoma
UACC-257 melanoma = tested on: UACC-257 melanoma
OVCAR-5 ovarian = tested on: OVCAR-5 ovarian
IGROV1 ovarian = tested on: IGROV1 ovarian
MCF7 breast = tested on: MCF7 breast
HOP-92 NSCLC = tested on: HOP-92 NSCLC
TK-10 renal = tested on: TK-10 renal
RPMI-8226 leukemia = tested on: RPMI-8226 leukemia
HCT-116 colon = tested on: HCT-116 colon
HS 578T breast = tested on: HS 578T breast
U251 CNS = tested on: U251 CNS
MALME-3M melanoma = tested on: MALME-3M melanoma
HCT-15 colon = tested on: HCT-15 colon
T-47D breast = tested on: T-47D breast
SK-MEL-5 melanoma = tested on: SK-MEL-5 melanoma
NCI-H522 lung = tested on: NCI-H522 lung
SNB-19 CNS = tested on: SNB-19 CNS
HCC-2998 colon = tested on: HCC-2998 colon
KM12 colon = tested on: KM12 colon
SW-620 colon = tested on: SW-620 colon
MOLT-4 leukemia = tested on: MOLT-4 leukemia
NCI-H460 lung = tested on: NCI-H460 lung
OVCAR-3 ovarian = tested on: OVCAR-3 ovarian
786-0 renal = tested on: 786-0 renal
COLO 205 colon = tested on: COLO 205 colon
RXF 393 renal = tested on: RXF 393 renal
BT-549 breast = tested on: BT-549 breast
UO-31 renal = tested on: UO-31 renal
SNB-75 CNS = tested on: SNB-75 CNS
A498 renal = tested on: A498 renal
SF-539 CNS = tested on: SF-539 CNS
NCI-H226 lung = tested on: NCI-H226 lung
HT29 colon = tested on: HT29 colon
NCI/ADR-RES ovarian = tested on: NCI/ADR-RES ovarian
SN12C renal = tested on: SN12C renal
SK-MEL-2 melanoma = tested on: SK-MEL-2 melanoma
OVCAR-4 ovarian = tested on: OVCAR-4 ovarian
EKVX NSCLC = tested on: EKVX NSCLC
SK-MEL-28 melanoma = tested on: SK-MEL-28 melanoma
M14 melanoma = tested on: M14 melanoma
UACC-62 melanoma = tested on: UACC-62 melanoma
HL-60(TB) leukemia = tested on: HL-60(TB) leukemia
ACHN renal = tested on: ACHN renal
MDA-MB-231 breast = tested on: MDA-MB-231 breast
DU-145 prostate = tested on: DU-145 prostate
NCI-H23 lung = tested on: NCI-H23 lung
OVCAR-8 ovarian = tested on: OVCAR-8 ovarian
MDA-MB-435 = tested on: MDA-MB-435
A549 NSCLC = tested on: A549 NSCLC
CAKI-1 renal = tested on: CAKI-1 renal
K-562 leukemia = tested on: K-562 leukemia
SK-OV-3 ovarian = tested on: SK-OV-3 ovarian
SF-268 CNS = tested on: SF-268 CNS

O=C(Cc1n[nH]c(=O)c2ccccc12)OCc1c(Cl)cccc1Cl
GI50 (LOX IMVI melanoma): 5.16 µM
TGI (LOX IMVI melanoma): > 100 µM
GI50 (UACC-257 melanoma): > 100 µM
TGI (UACC-257 melanoma): > 100 µM
GI50 (OVCAR-5 ovarian): > 100 µM
TGI (OVCAR-5 ovarian): > 100 µM
GI50 (IGROV1 ovarian): > 100 µM
TGI (IGROV1 ovarian): > 100 µM
GI50 (MCF7 breast): > 100 µM
TGI (MCF7 breast): > 100 µM
GI50 (HOP-92 NSCLC): > 100 µM
TGI (HOP-92 NSCLC): > 100 µM
GI50 (TK-10 renal): 41 µM
TGI (TK-10 renal): > 100 µM
GI50 (RPMI-8226 leukemia): 82.4 µM
TGI (RPMI-8226 leukemia): > 100 µM
GI50 (HCT-116 colon): 3.64 µM
TGI (HCT-116 colon): > 100 µM
GI50 (HS 578T breast): 17.4 µM
TGI (HS 578T breast): > 100 µM
GI50 (U251 CNS): 8.39 µM
TGI (U251 CNS): > 100 µM
GI50 (MALME-3M melanoma): 48.5 µM
TGI (MALME-3M melanoma): > 100 µM
GI50 (HCT-15 colon): 1740 nM
TGI (HCT-15 colon): > 100 µM
GI50 (T-47D breast): 24.6 µM
TGI (T-47D breast): > 100 µM
GI50 (SK-MEL-5 melanoma): 4.18 µM
TGI (SK-MEL-5 melanoma): > 100 µM
GI50 (NCI-H522 lung): > 100 µM
TGI (NCI-H522 lung): > 100 µM
GI50 (SNB-19 CNS): 15.6 µM
TGI (SNB-19 CNS): > 100 µM
GI50 (HCC-2998 colon): 50.4 µM
TGI (HCC-2998 colon): > 100 µM
GI50 (KM12 colon): 24.2 µM
TGI (KM12 colon): > 100 µM
GI50 (SW-620 colon): 49.8 µM
TGI (SW-620 colon): > 100 µM
GI50 (MOLT-4 leukemia): 4.07 µM
TGI (MOLT-4 leukemia): > 100 µM
GI50 (NCI-H460 lung): 2390 nM
TGI (NCI-H460 lung): > 100 µM
GI50 (OVCAR-3 ovarian): 41.9 µM
TGI (OVCAR-3 ovarian): > 100 µM
GI50 (786-0 renal): 15.1 µM
TGI (786-0 renal): > 100 µM
GI50 (COLO 205 colon): 5.63 µM
TGI (COLO 205 colon): > 100 µM
GI50 (RXF 393 renal): 24.1 µM
TGI (RXF 393 renal): 68.3 µM
GI50 (BT-549 breast): 16.3 µM
TGI (BT-549 breast): > 100 µM
GI50 (UO-31 renal): > 100 µM
TGI (UO-31 renal): > 100 µM
GI50 (SNB-75 CNS): 25.8 µM
TGI (SNB-75 CNS): > 100 µM
GI50 (A498 renal): > 100 µM
TGI (A498 renal): > 100 µM
GI50 (SF-539 CNS): 10.1 µM
TGI (SF-539 CNS): > 100 µM
GI50 (NCI-H226 lung): 9.97 µM
TGI (NCI-H226 lung): > 100 µM
GI50 (HT29 colon): 15.6 µM
TGI (HT29 colon): > 100 µM
GI50 (NCI/ADR-RES ovarian): 93.6 µM
TGI (NCI/ADR-RES ovarian): > 100 µM
GI50 (SN12C renal): > 100 µM
TGI (SN12C renal): > 100 µM
GI50 (SK-MEL-2 melanoma): > 100 µM
TGI (SK-MEL-2 melanoma): > 100 µM
GI50 (OVCAR-4 ovarian): > 100 µM
TGI (OVCAR-4 ovarian): > 100 µM
GI50 (EKVX NSCLC): > 100 µM
TGI (EKVX NSCLC): > 100 µM
GI50 (SK-MEL-28 melanoma): > 100 µM
TGI (SK-MEL-28 melanoma): > 100 µM
GI50 (M14 melanoma): > 100 µM
TGI (M14 melanoma): > 100 µM
GI50 (UACC-62 melanoma): 8.55 µM
TGI (UACC-62 melanoma): > 100 µM
GI50 (HL-60(TB) leukemia): 6.53 µM
TGI (HL-60(TB) leukemia): > 100 µM
GI50 (ACHN renal): 82 µM
TGI (ACHN renal): > 100 µM
GI50 (MDA-MB-231 breast): 69.8 µM
TGI (MDA-MB-231 breast): > 100 µM
GI50 (DU-145 prostate): 53.4 µM
TGI (DU-145 prostate): > 100 µM
GI50 (NCI-H23 lung): > 100 µM
TGI (NCI-H23 lung): > 100 µM
GI50 (OVCAR-8 ovarian): 36.5 µM
TGI (OVCAR-8 ovarian): > 100 µM
GI50 (MDA-MB-435): > 100 µM
TGI (MDA-MB-435): > 100 µM
GI50 (A549 NSCLC): > 100 µM
TGI (A549 NSCLC): > 100 µM
GI50 (CAKI-1 renal): 26.2 µM
TGI (CAKI-1 renal): > 100 µM
GI50 (K-562 leukemia): 4.19 µM
TGI (K-562 leukemia): > 100 µM
GI50 (SK-OV-3 ovarian): 12.8 µM
TGI (SK-OV-3 ovarian): > 100 µM
GI50 (SF-268 CNS): 9.21 µM
TGI (SF-268 CNS): > 100 µM
